Measurements as given in patent US6852696B2, “Inhibitors of glycosaminoglycans” (The University of Texas System, priority 1999, dated 2005).

Test system: DC-associated HA
Experiment: Binding of biotinylated peptide to DC surfaces
Settings: biotinylated form
Protocol: FIGS. 8B-D. Synthesis and surface expression of HA by DC. (B) XS106 DC were labeled with ^3H-glucosamine and then examined for the incorporation of hyaluronidase-sensitive radioactivities (means+/−s.e.m.; n=5) into the indicated subcellular fractions. (C) XS106 DC were incubated with biotinylated Pep-1 or RP and then with PE-conjugated streptavidin (filed histograms) (Mummert et al. J. Exp. Med. 192:769-779, 2000) or bovine testis hyaluronidase. Baseline staining levels with PE-streptavidin alone are shown with open histograms. (D) The indicated DC preparations were examined for binding of biotinylated Pep-1 (filled) and RP (open). Peptide binding to splenic DC and bone marrow-DC was examined within the CD11c^+ populations.

SATPASAPYPLA [RP, reference compound]
binding to surfaces of XS106 DC: no significant binding
